Experiments:
Assay in all cases: relative viability (nuclei count vs DMSO), 5 days (fraction); higher = more cells survive
[1] = compound: CCC1=CN=CN=C1N2CCN(CC2)CC3=NC4=C(N3)C=C(C=C4)C(F)(F)F + Nc1nc2[nH]cc(CCc3ccc(C(=O)N[C@@H](CCC(=O)O)C(=O)O)cc3)c2c(=O)[nH]1 [Pemetrexed] (partner 0.2 µM)
Procedure, shortened: (§1)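 Dosing by pin tool came one day after lung cancer cell lines were seeded in 1536-well plates, using either one drug or a fixed anchor-drug dose plus five library-drug doses (not always all listed) in √10 steps. After 5 days, nuclei were counted on 4× images. Relative viability is treated-well nuclei count divided by vehicle-well nuclei count, and values are medians of duplicate plates.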

[2] = compound: CCC1=CN=CN=C1N2CCN(CC2)CC3=NC4=C(N3)C=C(C=C4)C(F)(F)F + CCNC(=O)c1noc(-c2cc(C(C)C)c(O)cc2O)c1-c1ccc(CN2CCOCC2)cc1 [Luminespib] (partner 0.01 µM)
Procedure, shortened: as §1

[3] = compound: CCn1c(-c2nonc2N)nc2cnc(Oc3cccc(NC(=O)c4ccc(OCCN5CCOCC5)cc4)c3)cc21 + COc1cc2c(Oc3ccc(NC(=O)C4(C(=O)Nc5ccc(F)cc5)CC4)cc3F)ccnc2cc1OCCCN1CCOCC1 [Foretinib] (partner 0.25 µM)
Procedure, shortened: as §1

Mirin + OSI-027 = compound: N=C1NC(=O)/C(=C/c2ccc(O)cc2)S1 [Mirin] + COc1cccc2cc(-c3nc([C@H]4CC[C@H](C(=O)O)CC4)n4ncnc(N)c34)[nH]c12 [OSI-027] (partner 0.5 µM)
Procedure, shortened: as §1

| Cell Line | relative viability ([1]; first compound 0.04 µM) | relative viability ([1]; first compound 0.1265 µM) | relative viability ([1]; first compound 0.4 µM) | relative viability ([1]; first compound 1.265 µM) | relative viability ([1]; first compound 4 µM) | relative viability ([2]; first compound 0.04 µM) | relative viability ([2]; first compound 0.1265 µM) | relative viability ([2]; first compound 0.4 µM) | relative viability ([2]; first compound 1.265 µM) | relative viability ([2]; first compound 4 µM) | relative viability ([3]; first compound 0.04 µM) | relative viability ([3]; first compound 0.1265 µM) | relative viability ([3]; first compound 0.4 µM) | relative viability ([3]; first compound 1.265 µM) | relative viability ([3]; first compound 4 µM) | relative viability (Mirin + OSI-027; first compound 0.25 µM) | relative viability (Mirin + OSI-027; first compound 0.7906 µM) | relative viability (Mirin + OSI-027; first compound 2.5 µM) | relative viability (Mirin + OSI-027; first compound 7.906 µM) | relative viability (Mirin + OSI-027; first compound 25 µM) |
| --- | --- | --- | --- | --- | --- | --- | --- | --- | --- | --- | --- | --- | --- | --- | --- | --- | --- | --- | --- | --- |
| LU99A | 0.187 | 0.169 | 0.178 | 0.177 | 0.248 | 0.247 | 0.227 | 0.309 | 0.22 | 0.229 | 0.872 | 0.886 | 0.853 | 0.493 | 0.476 | 0.284 | 0.288 | 0.299 | 0.288 | 0.278 |
| BEN | 0.605 | 0.651 | 0.667 | 0.551 | 0.676 | 0.227 | 0.212 | 0.319 | 0.289 | 0.13 | 0.668 | 0.449 | 0.338 | 0.346 | 0.351 | 0.288 | 0.306 | 0.273 | 0.286 | 0.192 |
| SW 1573 | 0.884 | 0.947 | 0.83 | 0.747 | 0.885 | 0.158 | 0.211 | 0.174 | 0.273 | 0.399 | 1.1 | 0.926 | 0.527 | 0.539 | 0.354 | 0.616 | 0.428 | 0.625 | 0.524 | 0.307 |
| NCI-H1975 | 0.318 | 0.295 | 0.298 | 0.298 | 0.276 | 0.283 | 0.302 | 0.176 | 0.199 | 0.205 | 0.869 | 0.717 | 0.664 | 0.412 | 0.281 | 0.783 | 0.733 | 0.692 | 0.82 | 0.626 |
| SK-LU-1 | 0.892 | 0.992 | 0.958 | 0.985 | 0.998 | 0.205 | 0.203 | 0.213 | 0.178 | 0.213 | 0.837 | 0.621 | 0.587 | 0.333 | 0.318 | 0.387 | 0.35 | 0.333 | 0.276 | 0.228 |
| NCI-H460 | 0.0519 | 0.0632 | 0.0612 | 0.0661 | 0.0611 | 0.0311 | 0.0367 | 0.0386 | 0.0407 | 0.0253 | 1.06 | 0.902 | 0.978 | 0.426 | 0.16 | 0.612 | 0.672 | 0.748 | 0.55 | 0.389 |
| LCLC-103H | 0.399 | 0.449 | 0.462 | 0.446 | 0.467 | 0.948 | 0.98 | 0.999 | 0.886 | 0.721 | 0.777 | 0.91 | 0.798 | 0.662 | 0.624 | 0.444 | 0.495 | 0.515 | 0.509 | 0.442 |
| NCI-H1915 | 0.537 | 0.511 | 0.529 | 0.479 | 0.498 | 0.699 | 0.827 | 0.75 | 0.639 | 0.688 | 1.09 | 1.14 | 1.1 | 1.08 | 1.12 | 0.586 | – | 0.625 | 0.579 | 0.6 |

Reference: the supplement of paper PMC10307832
